Data reported in ChEMBL document CHEMBL1135026, “Synthesis of fluorescent biochemical tools related to the 2-azetidinone class of cholesterol absorption inhibitors” (2002).

How the values were obtained:
Assay type in all cases: functional
Rattus norvegicus [1] = test: Percent inhibition of 14C]cholesterol absorption into plasma using cholesterol absorption assay in rats at the dose of 300 ug/Kg
Rattus norvegicus [2] = test: Percent inhibition of 14C]cholesterol absorption into plasma using cholesterol absorption assay in rats at the dose of 100 ug/Kg
Rattus norvegicus [3] = test: Percent inhibition of 14C]cholesterol absorption into plasma using cholesterol absorption assay in rats at the dose of 30 ug/Kg
Rattus norvegicus [4] = test: Percent inhibition of 14C]cholesterol absorption into plasma using cholesterol absorption assay in rats at the dose of 186 ug/Kg
Rattus norvegicus [5] = test: Percent inhibition of 14C]cholesterol absorption into plasma using cholesterol absorption assay in rats at the dose of 56 ug/Kg
Rattus norvegicus [6] = test: Percent inhibition of 14C]cholesterol absorption into plasma using cholesterol absorption assay in rats at the dose of 10 ug/Kg
Rattus norvegicus [7] = organism: Rattus norvegicus; test: Compound was tested for cholesterol absorption inhibition in rats by bolus injection 1 mL) via the intestinal catheter into the small intestine, by cholesterol absorption assay; conditions: read-out: ID50 (the source's name)
Rattus norvegicus [8] = test: Percent inhibition of 14C]cholesterol absorption into plasma using cholesterol absorption assay in rats at the dose of 3 ug/Kg
Rattus norvegicus [9] = test: Percent inhibition of 14C]cholesterol absorption into plasma using cholesterol absorption assay in rats at the dose of 2000 ug/Kg

SMILES | inhibition in vivo at 0.1 mg/kg (Rattus norvegicus [2]) [%] | inhibition in vivo at 0.03 mg/kg (Rattus norvegicus [3]) [%] | inhibition in vivo at 0.01 mg/kg (Rattus norvegicus [6]) [%] | other results
Cc1cc(C)n(B(F)F)c1/C=C1/C=CC(CCC(=O)NCC#Cc2ccc(N3C(=O)[C@H](CC[C@H](O)c4ccc(F)cc4)[C@H]3c3ccc(O[C@@H]4O[C@H](C(=O)O)[C@@H](O)[C@H](O)[C@H]4O)cc3)cc2)=N1 | 80 | 58 | – | inhibition in vivo at 0.3 mg/kg (Rattus norvegicus [1]): 92%
O=C(CCCCCNC(=O)c1ccc(-c2c3ccc(=O)cc-3oc3cc(O)ccc23)c(C(=O)O)c1)NCC#Cc1ccc(N2C(=O)[C@H](CC[C@H](O)c3ccc(F)cc3)[C@H]2c2ccc(O[C@@H]3O[C@H](C(=O)O)[C@@H](O)[C@H](O)[C@H]3O)cc2)cc1 | – | 85 | – | inhibition in vivo at 0.186 mg/kg (Rattus norvegicus [4]): 88%; inhibition in vivo at 0.056 mg/kg (Rattus norvegicus [5]): 79%
O=C(O)[C@H]1O[C@@H](Oc2ccc([C@@H]3[C@@H](CC[C@H](O)c4ccc(F)cc4)C(=O)N3c3ccc(F)cc3)cc2)[C@H](O)[C@@H](O)[C@@H]1O | – | – | 91 | –
O=C(O)[C@H]1O[C@@H](Oc2ccc([C@@H]3[C@@H](CC[C@H](O)c4ccc(F)cc4)C(=O)N3c3cccc4nsnc34)cc2)[C@H](O)[C@@H](O)[C@@H]1O | 85 | 83 | 66 | –
O=C1[C@H](CC[C@H](O)c2ccc(F)cc2)[C@@H](c2ccc(O)cc2)N1c1ccc(F)cc1 [EZETIMIBE] | – | – | 74 | ED50 (Rattus norvegicus [7]): 1.6 µg/kg; inhibition in vivo at 0.003 mg/kg (Rattus norvegicus [8]): 63%
COc1ccc([C@@H]2[C@@H](CCCc3ccccc3)C(=O)N2c2ccc(OC)cc2)cc1 [SCH-48461] | – | – | – | inhibition in vivo at 2 mg/kg (Rattus norvegicus [9]): 95%
